The nature of the data set: Human HepG2 cell viability assay in 384 well format. Type of data set: toxicity, cell-based. On the set-up: dose 125 nL, time 70.5 hour; cytotoxicity at 70.5 h: concentration not given beside the values. Conditions: HepG2 cells, read-out: Inhibition.

As to `CC(C)Oc1cccc(C(=O)C2CCCN(C(=O)c3ccoc3)C2)c1` (stereo not given), the cytotoxicity at 70.5 h was -9.57%.
For `O=C(Cc1ccc(F)cc1)N1CCn2cc(Cn3cncn3)nc2C1`, the cytotoxicity at 70.5 h is -9.64%.
Then `COc1cccc(CNC(=O)c2nc3c(s2)CCN(C(C)=O)CC3)c1`, with -11%; and `Cn1cc(C2COC3(CCN(C(=O)c4ccsc4)CC3)C2)cn1` (stereo not given), with -15.9%.
Take `CS(=O)(=O)NCc1nnc2n1CCN(Cc1cccnc1)C2`: the cytotoxicity at 70.5 h came out at 18.3%.
On to `Cc1nc(C(=O)N2CC[C@@]3(C[C@@H](NS(C)(=O)=O)CCO3)C2)cs1`, for which the cytotoxicity at 70.5 h is -5.85%.
As for `CN1C[C@H]2C[C@H](C(=O)Nc3cccnc3)[C@@H](C1)O2`, the cytotoxicity at 70.5 h is -11.1%.
Then `c1cncc(CN2CCCC3(COCCN(c4cncnc4)C3)C2)c1` (stereo not given), with -6.01%.
`O=C(c1ccncc1)N1C[C@@H]2OCCN(CCN3CCCC3)[C@@H]2C1`: the cytotoxicity at 70.5 h was -4.2%.
Then `Cc1ncoc1C(=O)N1CC[C@@]2(C[C@H](NS(C)(=O)=O)CCO2)C1`, with -7.59%.
On to `Cc1cc(C(=O)N2CC[C@@]3(C[C@@H](NS(C)(=O)=O)CCO3)C2)no1`, for which the cytotoxicity at 70.5 h is -4.95%.
`O=S(=O)(c1ccccc1)N1CCC2(CCCN2Cc2cccc(F)c2)C1` (stereo not given): the cytotoxicity at 70.5 h came to 6.89%.
Then `CC1=N[C@@]2(CC[C@@H]3CN(S(=O)(=O)CC(C)C)C[C@@H]32)C(=O)N1CC1CC1`, with 8.18%; and `CS(=O)(=O)N[C@@H]1CCN(Cc2ccncc2)[C@H]1Cc1cccnc1`, with -12.8%.
For the molecule `CS(=O)(=O)N[C@@H]1CCN(Cc2cccs2)[C@H]1Cc1cccnc1`, the cytotoxicity at 70.5 h is -18.1%.
Then `COCC(=O)N1CC[C@H]2C[C@H](c3nc(C)no3)O[C@@H]2C1`, with -7.44%.
Consider `Cn1cc2c(n1)C(COCC1CC1)CN(Cc1ccsc1)C2` (stereo not given), for which the cytotoxicity at 70.5 h is -3.4%.
As for `CC(C)N(C)Cc1cnc2n1CCN(C(=O)c1cccs1)C2`, the cytotoxicity at 70.5 h is -15.9%.
As for `Cc1nc(CN2Cc3cn(C)nc3C(COCC3CC3)C2)cs1` (stereo not given), the cytotoxicity at 70.5 h stood at 14.1%.
Consider `CN1CCN(Cc2cnc3n2CCN(C(=O)N2CCCC2)C3)CC1`, for which the cytotoxicity at 70.5 h was -14.4%.
As for `CCCNC(=O)c1nc2c(o1)CN(C(C)=O)C2`, the cytotoxicity at 70.5 h was -9.4%.
As for `Cn1ccc(C(=O)NC2CCC23CCN(C(=O)c2ccnnc2)CC3)c1` (stereo not given), the cytotoxicity at 70.5 h amounted to 27.1%.
As for `CCc1nc2c(N3CCC4(CC3)CC(=O)N(CC)C4)ncnc2o1`, the cytotoxicity at 70.5 h is -1.14%.
On to `CN(CCO)Cc1nnc(C2CCN(CC(C)(C)C)CC2)n1C`, for which the cytotoxicity at 70.5 h was -4.91%.
Turning to `CN(Cc1ccc(-n2ccnc2)cc1)Cc1ncc[nH]1`, the cytotoxicity at 70.5 h was -6.87%.
Then `CC(=O)N[C@@H]1CN(S(=O)(=O)Cc2ccccc2)C[C@H]1C(C)C`, with -0.553%.
Regarding `CCCc1cc(CNc2cc(CCC)nc3ccnn23)on1`, the cytotoxicity at 70.5 h turned out to be 13.7%.
In the case of `O=C(c1ccc(-n2cnnc2)cc1Cl)N1CCCC(O)(CO)CC1` (stereo not given), the cytotoxicity at 70.5 h was determined as 15.6%.
In the case of `Cc1cnc(C)c(Oc2ccc(CN3CCCC3)cc2Cl)n1`, the cytotoxicity at 70.5 h was -4.06%.
Then `CN1CCCCC1c1nc(Cc2cccc(F)c2)no1` (stereo not given), with -7.67%.
Then `CC(=O)c1ccccc1NC(=O)CCN1CCSCC1`, with 6.67%.
Then `OCC1(O)CCN(Cc2noc(-c3ccccc3)n2)CC1`, with -6.37%; and `c1ccc(Cc2noc(CCNC3CCOC4(CCOCC4)C3)n2)cc1` (stereo not given), with 11.9%.
As to `Cc1cnc(C)c(N2CCCC(CC3CC3)(C(=O)O)C2)n1` (stereo not given), the cytotoxicity at 70.5 h was -4.19%.
Take `C1CCC(c2nc3c(c(N4CCN5CCCC5C4)n2)CCNCC3)C1` (stereo not given): the cytotoxicity at 70.5 h was -5.97%.
With `CCN(CC)c1ncccc1CNCc1cc2ccccc2s1`, the cytotoxicity at 70.5 h was -2.63%.
In the case of `CCCc1ccc(CN2CCN(C(=O)CC(C)C)[C@@H]3CS(=O)(=O)C[C@@H]32)o1`, the cytotoxicity at 70.5 h was -9.85%.
Regarding `COC(C)(C)C(=O)N1Cc2cnc(C(C)(C)C)nc2C1`, the cytotoxicity at 70.5 h is -13.3%.
Regarding `Cc1ccc(N2CCC(c3cc(Cc4ccccc4)n[nH]3)CC2)nn1`, the cytotoxicity at 70.5 h is -9.6%.
Regarding `Cc1cnc(NC(=O)c2cccc(CN(C)Cc3ncccc3C)c2)s1`, the cytotoxicity at 70.5 h came out at 8.51%.
Consider `CC(=O)Nc1ccc2nc(CN(C)Cc3noc(C)n3)ccc2c1`, for which the cytotoxicity at 70.5 h is -4.56%.
For `Cc1nonc1-c1nc(C(C)C)nn1-c1ccc2c(c1)OCO2`, the cytotoxicity at 70.5 h was -3.15%.
For the molecule `CCN1CC2(CCN(C(=O)c3nc4cc(C)ccn4c3F)CC2)CC1=O`, the cytotoxicity at 70.5 h is 24.7%.
Regarding `CC(Nc1nc(-c2ccccc2)nc2c1CCNCC2)c1cccnc1` (stereo not given), the cytotoxicity at 70.5 h turned out to be 2.48%.
`CSCC(=O)N(C)Cc1cnn(-c2ccc(F)cc2)c1`: the cytotoxicity at 70.5 h is 3.1%.
Turning to `CS(=O)(=O)N1CCC2(CC1)c1ccccc1[C@@H](N1CCSCC1)[C@@H]2O`, the cytotoxicity at 70.5 h is -0.762%.
Then `O=C(NCCn1cccc1)C(c1cccnc1)N1CCCC1` (stereo not given), with -0.962%; and `N#Cc1cccc(N2CCC(CO)(CCc3ccccc3)CC2)n1`, with -5.51%.
Then `CCCOCCNc1nc2c(s1)c(C)nn2C`, with 24.8%; and `O=C1CC[C@H]2CN(c3ncccc3F)CC[C@H]2N1CCc1ccccc1`, with 17.3%.
Regarding `CN(Cc1cc[nH]n1)C(=O)C1CC(=O)N(Cc2ccncc2)C1` (stereo not given), the cytotoxicity at 70.5 h was -0.62%.
As to `CCC(=O)Nc1cccc(OCC(=O)N2C[C@H]3CC[C@H]2C3)c1`, the cytotoxicity at 70.5 h was -18.9%.
As for `COCCN(C)Cc1cn(C)nc1-c1ccc2c(c1)OCCO2`, the cytotoxicity at 70.5 h was -7.93%.
As for `Cc1ncc(CN(C)C2CCCN(CCc3ccccc3)C2)n1C` (stereo not given), the cytotoxicity at 70.5 h is -9.12%.
As for `COc1cccc(CN2CC(=O)N(c3ccccc3C)CC2C)c1OC` (stereo not given), the cytotoxicity at 70.5 h was -6.78%.
On to `O=C(CSC(F)(F)F)N1CCC2(CCCN(C3CCOCC3)C2=O)C1` (stereo not given), for which the cytotoxicity at 70.5 h came to 15%.
Then `CCc1ccc(CN2CCCC(c3nn(C)c(=O)n3CC)C2)nc1` (stereo not given), with -9.19%; and `CN(Cc1ccon1)C(=O)CN1C(=O)OC(C)(C)C1=O`, with -11.5%; and `CC(C)N1CCC(C(=O)NC[C@H]2CCc3ccccc3O2)CC1`, with -17.4%.
Then `Cc1nc2ccccn2c1CN1C[C@@H](CN(C)CCO)[C@@H](CO)C1`, with 5.92%.
Turning to `CC(C)(C)c1cc(CN2C[C@@H]3CC[C@H](C2)N(Cc2ccccn2)C3)n[nH]1`, the cytotoxicity at 70.5 h is -9.78%.
In the case of `CCN(CC)c1ncccc1CNC(=O)c1cnn(CC)c1`, the cytotoxicity at 70.5 h was -3.9%.
In the case of `O=C(C1CCOCC1)N1C[C@H]2CC[C@@H]1CN(Cc1ccncc1)C2`, the cytotoxicity at 70.5 h is -6.05%.
Take `Cc1ccc(C2(O)CCN(C(=O)CCn3c(C)cccc3=O)CC2)nc1`: the cytotoxicity at 70.5 h was 27.8%.
Turning to `CC(C)(O)CCc1cccc(C(=O)N2Cc3cnn(CCO)c3C2)c1`, the cytotoxicity at 70.5 h was -17.1%.
On to `COc1ccc(F)cc1-n1cnc(CCNC(C)=O)c1`, for which the cytotoxicity at 70.5 h was 16.3%.
As for `Cc1nccc(N2C[C@H](NC(=O)CNS(C)(=O)=O)[C@@H](C3CC3)C2)n1`, the cytotoxicity at 70.5 h is -5%.
As for `Cc1cc(C(=O)N2CCCC(O)(CN3CCCC3)C2)ccc1Cl` (stereo not given), the cytotoxicity at 70.5 h was 1.99%.
Regarding `C[C@H](NC(=O)c1cnc(-c2ccccc2)nc1O)C(N)=O`, the cytotoxicity at 70.5 h is -7.97%.
Then `Cc1ccc(O)c(CN2CCCCC2CCN2CCOCC2)c1` (stereo not given), with -7.89%; and `CCOCCn1nc(C)cc1C(=O)N1CC(C)(C)[C@@](C)(O)C1`, with -2.57%.
Consider `CCc1nccc(CN2CCC(CNC(=O)Nc3ccccc3)C2)n1` (stereo not given), for which the cytotoxicity at 70.5 h stood at 18.8%.
Then `COc1ccc2c(c1)OCC(Cc1ccc(N)nc1C)C2` (stereo not given), with -8.63%.
For the molecule `FC(F)(F)CCc1ccnc(N2CCN(CCc3ccncc3)CC2)n1`, the cytotoxicity at 70.5 h was -6.22%.
Consider `Cc1noc(C)c1C(=O)N1CC[C@]2(C[C@@H](OCc3cccnc3)CO2)C1`, for which the cytotoxicity at 70.5 h was -9.24%.
In the case of `Cn1cc(CN2CC[C@H](O)[C@@H]2Cc2ccccc2)cn1`, the cytotoxicity at 70.5 h was -0.0718%.
Then `Cc1ccc(CN2CC[C@@H](O)[C@@H]2Cc2cnn(C)c2)o1`, with -10.4%.
For `Cc1cc(C(=O)N2C[C@@H]3OCCN(CCN4CCCC4)[C@@H]3C2)c(C)o1`, the cytotoxicity at 70.5 h was -7.77%.
In the case of `CCN1C[C@H]2C[C@H](C(=O)Nc3ccccc3)[C@@H](C1)O2`, the cytotoxicity at 70.5 h is 16.4%.
As for `O=C(c1cc[nH]n1)N1CCc2onc(COc3cccnc3)c2C1`, the cytotoxicity at 70.5 h is -6.72%.
Consider `CC(C)(C)CN1CCCC12CCN(S(=O)(=O)c1ccccc1)C2` (stereo not given), for which the cytotoxicity at 70.5 h is -2.83%.
As for `CN1C(=O)C2(CCN(CC3CCC3)C2)c2ccccc21` (stereo not given), the cytotoxicity at 70.5 h came to 9.83%.
With `O=C(NCc1ccccc1)c1nc2c(o1)CN(C(=O)c1cccnc1)C2`, the cytotoxicity at 70.5 h is -9%.
As to `Cn1ccnc1CN1CC[C@@H](NS(C)(=O)=O)[C@@H]1Cc1ccccc1`, the cytotoxicity at 70.5 h is -10.6%.
For the molecule `CCC(CC)NC(=O)c1ncn2c1CN(CC)S(=O)(=O)c1ccccc1-2`, the cytotoxicity at 70.5 h is -12.8%.
Turning to `CC(C)CN1C(=O)C2(CCN(CC3CCOCC3)C2)c2ccccc21` (stereo not given), the cytotoxicity at 70.5 h was -3.07%.
Then `CC(C)CS(=O)(=O)N1CCC2(CN(c3cccc(F)c3)C(=O)CN2C)C1` (stereo not given), with 19.6%; and `CC(C)OCc1ncn2c1CN(CC1CC1)CCC2`, with 20.2%.
Consider `CCOc1ncnc2c1CCN(Cc1csc(C)n1)CC2`, for which the cytotoxicity at 70.5 h stood at 18.8%.
`Cc1nc(CN2CCCn3cnc(COC(C)C)c3C2)cs1`: the cytotoxicity at 70.5 h was -2.95%.
Turning to `CC(C)NC(=O)[C@H]1C[C@H]2OCC[C@H]2N(Cc2ccc3ccccc3n2)C1`, the cytotoxicity at 70.5 h is -0.387%.
`O=C(c1ccsc1)N1C[C@@H]2OCCN(CCN3CCCC3)[C@@H]2C1`: the cytotoxicity at 70.5 h is 16.6%.
Then `Cn1cc(CN2CC[C@@H](NS(C)(=O)=O)[C@@H]2Cc2cccnc2)cn1`, with -12.3%; and `COCC(=O)N1CCn2c(CN3CCN(C)CC3)cnc2C1`, with -3.31%; and `Cc1nc(CN2CCc3ncnc(-c4ccncc4)c3CC2)cs1`, with 20%.

Values taken from ChEMBL document CHEMBL3507680, “University of Dundee, Gates Library screen for HepG2 cell viability”.
